Measurements taken from patent publication US20100087457A1, “DOSAGES AND METHODS FOR THE TREATMENT OF CANCER” (Myriad Pharmaceuticals, Inc, priority 2007, published 2010).
Values joined by “and” are separate entries in the source; they are usually repeats but may differ in a detail not shown here. Equal values may be shown once. Where a name gives a salt, the structure may show the parent alone.

Experiment: Phase I clinical trial: plasma concentrations after weekly intravenous infusion (pharmacokinetics)
Type: in vivo, human
Conditions: LLOQ 1 ng/mL; for Plasma Concentrations 2 HR: 2 hr after infusion; for Plasma Concentrations 4 HR: 4 hr after infusion; for Plasma Concentrations 6 HR: 6 hr after infusion; for Plasma Concentrations 12 HR: 12 hr after infusion; for Plasma Concentrations 24 HR: 24 hr after infusion; for Plasma Concentrations EOI: end of infusion; for Plasma Concentrations PREDOSE: Day 15 (third weekly dose)
Method: An open-label, dose-escalating, multiple-dose study to define the safety, tolerability and pharmacokinetics of weekly intravenous administration of (4-Methoxy-phenyl)-methyl-(2-methyl-quinazolin-4-yl)-amine hydrochloride was performed. A dosing schedule (each 4 week cycle) was performed for (4-Methoxy-phenyl)-methyl-(2-methyl-quinazolin-4-yl)-amine hydrochloride weekly for 3 weeks with no infusion on the fourth week of each cycle. Subjects with refractory solid tumors were enrolled in cohorts of 3. During Cycle 1, subjects were hospitalized during each infusion of (4-Methoxy-phenyl)-methyl-(2-methyl-quinazolin-4-yl)-amine hydrochloride and remained for observation and safety evaluation for approximately 24 hours following the end of the infusion. All subjects had continuous telemetry for 2 hours prior to infusion, for 1-2 hour infusion and for 3 hours after the end of the infusion. Any clinically significant electrocardiographic (ECG) wave form abnormality was recorded and prolongation of the monitoring period extended at the discretion of the principal investigator.
Blood samples were collected prior to dosing, at the end of the infusion, and 1, 2, 4, 6, 12, and 24 hours after the infusion. This sampling schedule occurred on Days 1 and 15 with administration of the first and third doses. Samples were collected into tubes containing EDTA and stored on ice until centrifuged. The plasma was frozen at approximately −20° C. in labeled, plastic tubes, or vials, and tightly capped. The samples were shipped to Myriad Pharmaceuticals, Inc. for analysis of (4-Methoxy-phenyl)-methyl-(2-methyl-quinazolin-4-yl)-amine hydrochloride. Pharmacokinetic analysis was conducted using WinNonlin 4.0®.

[1] = Day 1, 0.3 mg/m^2 i.v., infusion 1 hr
[2] = Day 1, 2.1 mg/m^2 i.v., infusion 1 hr, hydrochloride
[3] = Day 1, 2.7 mg/m^2 i.v., infusion 1 hr, hydrochloride
[4] = Day 1, 3.3 mg/m^2 i.v., infusion 2 hr, hydrochloride
[5] = Day 15, 0.3 mg/m^2 i.v., infusion 1 hr
[6] = Day 15, 1.0 mg/m^2 i.v., infusion 1 hr, hydrochloride
[7] = Day 15, 1.0 mg/m^2 i.v., infusion 1 hr
[8] = Day 15, 3.9 mg/m^2 i.v., infusion 2 hr, hydrochloride

Compound: COc1ccc(N(C)c2nc(C)nc3ccccc23)cc1 [(4-Methoxy-phenyl)-methyl-(2-methyl-quinazolin-4-yl)-amine hydrochloride]
- Plasma Concentrations 1 HR (Day 1, 0.3 mg/m^2 i.v., infusion 1 hr, 1 hr after infusion, hydrochloride): 1.17 ng/mL and 1.25 ng/mL
- Plasma Concentrations 2 HR [1]: BQL
- Plasma Concentrations 4 HR [1]: BQL
- Plasma Concentrations 6 HR [1]: BQL
- Plasma Concentrations 12 HR [1]: BQL
- Plasma Concentrations 24 HR [1]: BQL
- Plasma Concentrations EOI (Day 1, 0.3 mg/m^2 i.v., infusion 1 hr, hydrochloride): 1.77 ng/mL and 1.52 ng/mL and 2.43 ng/mL
- Plasma Concentrations 24 HR (Day 1, 1.5 mg/m^2 i.v., infusion 1 hr): BQL
- Plasma Concentrations 1 HR (Day 1, 2.1 mg/m^2 i.v., infusion 1 hr, 1 hr after infusion, hydrochloride): 5.53 ng/mL and 3.75 ng/mL
- Plasma Concentrations 2 HR [2]: 4.78 ng/mL and 3.94 ng/mL
- Plasma Concentrations 4 HR [2]: 2.69 ng/mL and 2.41 ng/mL
- Plasma Concentrations 6 HR [2]: 1.62 ng/mL and 1.18 ng/mL
- Plasma Concentrations 24 HR (Day 1, 2.1 mg/m^2 i.v., infusion 1 hr): BQL
- Plasma Concentrations 1 HR (Day 1, 2.7 mg/m^2 i.v., infusion 1 hr, 1 hr after infusion, hydrochloride): 4.69 ng/mL
- Plasma Concentrations 2 HR [3]: 4.03 ng/mL and 5.54 ng/mL
- Plasma Concentrations 4 HR [3]: 2.33 ng/mL and 3.91 ng/mL
- Plasma Concentrations 6 HR [3]: 1.68 ng/mL and 3.11 ng/mL
- Plasma Concentrations EOI [3]: 10.42 ng/mL and 11.10 ng/mL and 7.52 ng/mL
- Plasma Concentrations 2 HR [4]: 10.37 ng/mL and 8.81 ng/mL and 5.19 ng/mL
- Plasma Concentrations EOI [4]: 8.67 ng/mL and 11.97 ng/mL and 13.37 ng/mL and 16.77 ng/mL
- Plasma Concentrations PREDOSE (0.3 mg/m^2 i.v., infusion 1 hr): BQL
- Plasma Concentrations PREDOSE (0.6 mg/m^2 i.v., infusion 1 hr): BQL
- Plasma Concentrations PREDOSE (1.0 mg/m^2 i.v., infusion 1 hr): BQL
- Plasma Concentrations PREDOSE (1.5 mg/m^2 i.v., infusion 1 hr): BQL
- Plasma Concentrations PREDOSE (2.1 mg/m^2 i.v., infusion 1 hr): BQL
- Plasma Concentrations PREDOSE (2.7 mg/m^2 i.v., infusion 1 hr): BQL
- Plasma Concentrations PREDOSE (3.3 mg/m^2 i.v., infusion 2 hr): BQL
- Plasma Concentrations 2 HR [5]: BQL
- Plasma Concentrations 4 HR [5]: BQL
- Plasma Concentrations 6 HR [5]: BQL
- Plasma Concentrations 12 HR [5]: BQL
- Plasma Concentrations 24 HR [5]: BQL
- Plasma Concentrations 1 HR (Day 15, 1.0 mg/m^2 i.v., infusion 1 hr, 1 hr after infusion, hydrochloride): 2.51 ng/mL
- Plasma Concentrations 2 HR [6]: 2.15 ng/mL
- Plasma Concentrations 6 HR [7]: BQL
- Plasma Concentrations 12 HR [7]: BQL
- Plasma Concentrations 24 HR [7]: BQL
- Plasma Concentrations EOI [6]: 8.27 ng/mL and 7.82 ng/mL
- Plasma Concentrations 4 HR (Day 15, 1.5 mg/m^2 i.v., infusion 1 hr, hydrochloride): 1.60 ng/mL and 1.40 ng/mL and 1.30 ng/mL
- Plasma Concentrations 1 HR (Day 15, 2.1 mg/m^2 i.v., infusion 1 hr, 1 hr after infusion, hydrochloride): 6.21 ng/mL and 7.19 ng/mL
- Plasma Concentrations 4 HR (Day 15, 2.1 mg/m^2 i.v., infusion 1 hr, hydrochloride): 3.79 ng/mL
- Plasma Concentrations 1 HR (Day 15, 3.3 mg/m^2 i.v., infusion 1 hr, 1 hr after infusion, hydrochloride): 9.00 ng/mL and 17.56 ng/mL and 15.17 ng/mL
- Plasma Concentrations 1 HR (Day 15, 3.3 mg/m^2 i.v., infusion 2 hr, 1 hr after infusion, hydrochloride): 12.21 ng/mL and 6.40 ng/mL and 7.21 ng/mL
- Plasma Concentrations 2 HR (Day 15, 3.3 mg/m^2 i.v., infusion 2 hr, hydrochloride): 7.50 ng/mL and 5.52 ng/mL and 4.16 ng/mL
- Plasma Concentrations 1 HR (Day 15, 3.9 mg/m^2 i.v., infusion 2 hr, 1 hr after infusion, hydrochloride): 10.97 ng/mL and 12.15 ng/mL and 7.79 ng/mL and 9.85 ng/mL
- Plasma Concentrations 2 HR [8]: 8.48 ng/mL and 14.58 ng/mL and 7.36 ng/mL and 8.35 ng/mL
- Plasma Concentrations 4 HR [8]: 9.13 ng/mL and 7.84 ng/mL and 10.17 ng/mL and 6.81 ng/mL
- Plasma Concentrations 1 HR (Day 15, 4.5 mg/m^2 i.v., infusion 2 hr, 1 hr after infusion, hydrochloride): 17.94 ng/mL and 11.45 ng/mL and 10.03 ng/mL
- Plasma Concentrations 2 HR (Day 15, 4.5 mg/m^2 i.v., infusion 2 hr, hydrochloride): 14.46 ng/mL and 12.32 ng/mL and 8.11 ng/mL
- concentration at 1 h after end of infusion (human, plasma, iv, 0.3 mg/m^2, Day 1, 0.3 mg/m^2 i.v., infusion 1 hr, 1 hr after infusion): 1.03 ng/mL
